Measured values from ChEMBL document CHEMBL1146643, “Potential hypotensive agents: synthesis and hypotensive activity of oxime ethers derived from 1-naphthoxepines and related compounds” (2004).

Key:
Type in all cases: functional
Details in all cases: route intravenous
[1] = tested on: Felis catus; assay: Percent of maximum effect in anaesthetized cat at a dose of 1 mg/kg intravenously
[2] = tested on: Felis catus; assay: Percent of maximum effect in anaesthetized cat at a dose of 5 mg/kg intravenously
[3] = tested on: Felis catus; assay: Fall of blood pressure in anaesthetized cat at a dose of 1 mg/kg intravenously
[4] = tested on: Felis catus; assay: Fall of blood pressure in anaesthetized cat at a dose of 5 mg/kg intravenously

Row | SMILES | Max effect [1] | Max effect [2] | Decrease in blood pressure [3] | Decrease in blood pressure [4]
1 | CC(C)NCC(O)CO/N=C1\CCCOc2c1ccc1ccccc21 (stereo not drawn) | 14% | 88% | 20 mmHg | 110 mmHg
2 | CC(C)NCC(O)CO/N=C1\CCCOc2ccc3ccccc3c21 (stereo not drawn) | 7% | 70% | 10 mmHg | 80 mmHg
3 | CCCNCC(O)CO/N=C1\CCCOc2ccc3ccccc3c21 (stereo not drawn) | 17% | 17% | 18 mmHg | 16 mmHg
4 | CCCNCC(O)CO/N=C1\CCCOc2c1ccc1ccccc21 (stereo not drawn) | 21% | 50% | 20 mmHg | 60 mmHg
5 | CC(C)NCC(O)COc1cccc2ccccc12 (stereo not drawn) [PROPRANOLOL] | 35% | 41% | 46 mmHg | 50 mmHg
6 | CC(C)(C)NCC(O)CO/N=C1\CCCOc2ccc3ccccc3c21 (stereo not drawn) | 21% | 41% | 18 mmHg | 50 mmHg
7 | CC(C)(C)NCC(O)CO/N=C1\CCCOc2c1ccc1ccccc21 (stereo not drawn) | 40% | 55% | 60 mmHg | 80 mmHg
